{
  "source": "patent US20210052633A1",
  "about": "“HYALURONIC ACID SYNTHESIS PROMOTER, METHOD FOR PROMOTING HYALURONIC ACID SYNTHESIS, AND CELL EVALUATION METHOD” (SEIKAGAKU CORPORATION, priority 2018, published 2021)",
  "key": {"[1]": {"test_system": "Human synovial cells derived from a patient with rheumatism (HFLS-RA)", "assay": "Hyaluronic acid synthesis by synovial cells ([3H] glucosamine incorporation, HPLC fractionation by molecular weight)", "format": "cell-based", "experimental": "Compound 1 or sodium hyaluronate (HA) (ARTZ Dispo (registered trademark) (manufactured by Seikagaku Corporation)) was mixed in a solution containing a phosphate buffer solution (GIBCO) and an α-MEM (GIBCO) concentrated medium. Further, each reagent was added and mixed in the resulting solution so that the final concentrations were as follows: 10% (v/v) fetal bovine serum (hereinafter FBS (MP Biomedicals)), 10 ng/mL recombinant human IL-1β/IL-1F2 (hereinafter IL-1β (R & D Systems)), 1% (w/v) penicillin/streptomycin (GIBCO), and 370 kBq/mL [^3H] glucosamine (Perkin Elmer). As a result, the following five solutions were obtained as test substances.\nHuman synovial cells derived from a patient with rheumatism (HFLS-RA, CELL APPLICATIONS, INC.) were subcultured and grown in a 175-cm^2 flask. In the cell culture, Basal medium (containing 10% (v/v) Growth supplement and 1% (w/v) penicillin/streptomycin) (manufactured by Cell Applications, Inc.) was used. Thereafter, the cells were seeded in a 6-well plate at 3.0×10^5 cells/2 mL/well and cultured for about 24 hours until confluence was reached. In the cell culture, α-MEM medium (containing 10% (v/v) FBS and 1% (w/v) penicillin/streptomycin) was used. After removing the culture supernatant, 2 mL of the test substance was added to the cells, and the cells were further cultured for 48 hours. The culture was performed at 37° C. in a CO2 incubator (5% (v/v) CO2). After completion of the culture, the culture supernatant was collected and cryopreserved in an ultra-low temperature freezer until measurement.\nSince glucosamine is a constituent monosaccharide of hyaluronic acid, in hyaluronic acid newly synthesized in the cells after addition of the test substance, [^3H] glucosamine is incorporated. Therefore, hyaluronic acid in the collected culture supernatant was separated according to molecular weight using HPLC, and fractions were collected every 0.5 minutes using a fraction collector. To each of the collected fractions, 0.5 mL of a scintillation fluid was added and mixed. Thereafter, the radioactivity (dpm, disintegrations per minute) of each fraction was measured using a scintillation counter, and the radioactivity (the amount of [^3H] glucosamine incorporated into newly produced hyaluronic acid) was evaluated. The HPLC conditions are as follows.\nMobile phase: a solution of 5 mmol/L phosphate buffer solution (pH 6.0) with 0.82% (w/v) NaCl:acetonitrile=2:1 (v:v)\nColumn: OH pak SB-805 HQ column (Shodex (registered trademark)), column temperature: 35° C.\nThe hyaluronic acid standard solution was separated by HPLC, and UV absorption at a wavelength of 210 nm was measured. Fraction No. in which the peak top of the hyaluronic acid standard solution of each molecular weight is collected was calculated. As the hyaluronic acid standard solutions, Select-HATM 500 k (average molecular weight: 528,000), Select-HATM 1,000 k (average molecular weight: 1,076,000), and Select-HATM 2,500 k (average molecular weight: 2,420,000) were used.\nThe same procedure as in Example 1 was performed. Note that the culture supernatant was collected at respective time points (8, 24, 36, 48, and 72 hours) after adding the test substance to the cells.\nA control solution, a 0.01% (w/v %) compound 1 solution, and a 0.01% (w/v %) sodium hyaluronate (HA) solution were prepared in the same manner as in Example 1. DF-Na (0.014 μg/mL, 0.14 μg/mL, 1.4 μg/mL, and 14 μg/mL) solutions were prepared by dissolving DF-Na in the control solution. Further, a HA+DF-Na mixed liquid was obtained by dissolving DF-Na (1.4 μg/mL) in the 0.01% (w/v %) sodium hyaluronate (HA) solution.\n(§1) The same procedure as in Example 1 was performed.\nThe same procedure as in Example 1 was performed. Note that a column (OH pak SB-807 HQ column (Shodex (registered trademark)) having higher separability on the high molecular weight side than the HPLC column (OH pak SB-805 HQ column (Shodex (registered trademark)) was used."}, "[2]": {"test_system": "Human synovial cells derived from a patient with rheumatism (HFLS-RA)", "assay": "Hyaluronidase treatment of culture supernatant, then fractionation and radioactivity measurement", "format": "cell-based", "conditions": "Example 2, 0.01% (w/v)", "experimental": "It was verified that the substance whose synthesis was promoted by the action of the compound 1 is hyaluronic acid by confirming the presence or absence of degradation by a hyaluronic acid-degrading enzyme (hyaluronidase).\nas §1\nThe culture supernatant (90 μL) collected after adding the 0.01% HA solution and 10 μL of 100 TRU/mL hyaluronidase (or water for injection) were mixed and reacted overnight at 37° C., thereby performing a hyaluronidase treatment. The culture supernatant (90 μL) collected after adding the 0.01% compound 1 solution and 30 μL of 100 TRU/mL hyaluronidase (or water for injection) were mixed and reacted at 60° C. for 3 hours, thereby performing a hyaluronidase treatment. The hyaluronidase (derived from an actinomycetes) was purchased from Seikagaku Biobusiness Corporation."}, "[3]": {"test_system": "human synovial cells derived from three patients with osteoarthritis (HFLS-OA)", "assay": "Hyaluronic acid synthesis by synovial cells ([3H] glucosamine incorporation, HPLC fractionation by molecular weight)", "format": "cell-based", "conditions": "48 hours, SB-807 HQ column"}, "HAS2 mRNA": {"test_system": "HAS2 mRNA", "assay": "Relative mRNA level (real-time PCR, ΔΔCt) in synovial cells", "format": "cell-based, human", "conditions": "HFLS-OA, 0.1% (w/v), 48 hours, vs control", "experimental": "(§2) Compound 1 or sodium hyaluronate (HA) (ARTZ Dispo (registered trademark) (manufactured by Seikagaku Corporation)) was mixed in a solution containing a phosphate buffer solution and an α-MEM concentrated medium. Further, each reagent was added and mixed in the resulting solution so that the final concentrations were as follows: 10% (v/v) fetal bovine serum (hereinafter FBS), 10 ng/mL recombinant human IL-1β/IL-1F2 (hereinafter IL-1β), and 1% (w/v) penicillin/streptomycin. As a result, the following three solutions were prepared as test substances.\n(§3) Human synovial cells derived from a patient with osteoarthritis (HFLS-OA, CELL APPLICATIONS, INC.) were subcultured and grown in a 175-cm^2 flask. In the cell culture, Basal medium (containing 10% (v/v) Growth supplement and 1% (w/v) penicillin/streptomycin) (manufactured by Cell Applications, Inc.) was used. Thereafter, the cells were seeded in a 6-well plate at 3.0×10^5 cells/2 mL/well and cultured for about 24 hours until confluence was reached. In the cell culture, α-MEM medium (containing 10% (v/v) FBS and 1% (w/v) penicillin/streptomycin) was used. […]\n(§4) The cDNA sample was subjected to real-time PCR using Premix ExTaq (Perfect Real Time) (Takara Bio, Inc.), the Ct values of target genes (HAS1, HAS2, HAS3, HYAL1, HYAL2, and HYAL3) and GAPDH were measured, and relative mRNA levels were calculated by the ΔΔCt method."}, "HYAL2 mRNA": {"test_system": "HYAL2 mRNA", "assay": "Relative mRNA level (real-time PCR, ΔΔCt) in synovial cells", "format": "cell-based, human", "conditions": "HFLS-OA, 0.1% (w/v), 48 hours, vs control", "experimental": "as §2, §3, §4"}, "[4]": {"test_system": "model rabbit with antigen-induced arthritis", "assay": "Hyaluronic acid synthesis in the knee joint of a model rabbit with antigen-induced arthritis", "format": "in vivo, Japanese white rabbit", "text": "A 0.5% (w/v %) compound 1 solution was obtained by mixing respective solutions of a 1% (w/v) compound 1 solution (phosphate buffer solution), a 10% (w/v) ovalbumin solution (phosphate buffer solution) and [^3H] glucosamine (phosphate buffer solution, 37 MBq/mL) at a ratio of 5:1:4 (v:v:v). In the preparation of a control solution, a phosphate buffer solution was used in place of the compound 1 solution. In the preparation of a sodium hyaluronate (HA) solution, ARTZ Dispo (registered trademark) (manufactured by Seikagaku Corporation) was used in place of the compound 1 solution. Further, a Normal solution not containing ovalbumin (an arthritis-inducing substance) was obtained by mixing respective solutions of a phosphate buffer solution and [^3H] glucosamine (phosphate buffer solution, 37 MBq/mL) at a ratio of 3:2 (v:v). As test substances, the following substances were used.\nOvalbumin (SIGMA) was dissolved and prepared with physiological saline (Otsuka Pharmaceutical Factory, Inc.) at 1% (w/v), and a water-in-oil emulsion was prepared with Freund's complete adjuvant (CAPPEL) at 1:1 (v:v). The emulsion was intradermally administered at a total dose of 1 mL to dozens of sites of the back of a Japanese white rabbit (male, 16 weeks of age, Oriental Yeast Industry Co., Ltd.) under general anesthesia (midazolam, xylazine, and butorphanol at 0.67 mg/kg, 5.3 mg/kg, and 0.67 mg/kg, i.v., respectively) to sensitize the rabbit. On day 12 after sensitization, the rabbit was additionally sensitized by administering the emulsion in the same manner. […]\nSince glucosamine is a constituent monosaccharide of hyaluronic acid, in hyaluronic acid newly synthesized in the living body after administration of the test substance, [^3H] glucosamine is incorporated. […] Thereafter, the radioactivity (dpm, disintegrations per minute) of each fraction was measured using a scintillation counter, and the radioactivity (the amount of [^3H] glucosamine incorporated into newly synthesized hyaluronic acid) was evaluated. […]"}, "[5]": {"test_system": "synovial cells derived from patients with osteoarthritis (HFLS-OA)", "protocol": "The cells derived from three patients with each disease (3 lots) were separately evaluated and the number of cases was set to 3.\nAfter the culture supernatant was collected, the adhered cells were detached from each well. Thereafter, the cell count was measured using a trypan blue solution and a hemacytometer."}, "[6]": {"conditions": "0.5% (w/v), 0.5 mL/joint, 48 hours"}},
  "data": [
    {"molecule": "O=C(O)Cc1ccccc1Nc1c(Cl)cccc1Cl", "note": "[DF-Na, diclofenac sodium, reference compound]", "values": [
      {"measurement": "action of producing high molecular weight hyaluronic acid observed in the compound 1 group", "setting": "[1]; Example 4, HFLS-RA, 48 hours, 0.01% HA, DF-Na 1.4 μg/mL, or both mixed", "result": "not observed"},
      {"measurement": "molecular weight peak of hyaluronic acid produced", "setting": "[1]; Example 4, HFLS-RA, DF-Na 1.4 μg/mL, 48 hours", "result": "~500,000"},
      {"measurement": "action of promoting hyaluronic acid synthesis", "setting": "[1]; Example 4, HFLS-RA, DF-Na 0.014 to 14 μg/mL, 48 hours", "result": "not observed at any concentration"}
    ]},
    {"molecule": "Aminoethanol-diclofenac-introduced sodium hyaluronate [compound 1]", "values": [
      {"measurement": "action of promoting the synthesis of high molecular weight hyaluronic acid", "setting": "[1]; Example 1, HFLS-RA, 0.1% and 0.01% (w/v), 48 hours", "result": "has an action of promoting the synthesis of high molecular weight hyaluronic acid"},
      {"measurement": "molecular weight peak of hyaluronic acid produced", "setting": "[1]; Example 1, HFLS-RA, IL-1β, 0.1% and 0.01% (w/v) test substance, 48 hours, SB-805 HQ column, control peak in the vicinity of 500,000", "result": "high molecular weight exceeding the molecular weight of hyaluronic acid produced in the HA group"},
      {"measurement": "molecular weight peak of hyaluronic acid produced", "setting": "[1]; Example 3, HFLS-RA, 0.1% (w/v), 8, 24, 36, 48 and 72 hours, control in the vicinity of 500,000", "result": "higher molecular weight than that in the HA groups"},
      {"measurement": "content of hyaluronic acid over time", "setting": "[1]; Example 3, HFLS-RA, 0.1% (w/v), 8 to 72 hours", "result": "increases over time"},
      {"measurement": "molecular weight peak of hyaluronic acid produced", "setting": "[1]; Example 4, HFLS-RA, 0.01% (w/v), 48 hours, control in the vicinity of 500,000", "result": "more prominent than in the HA group"},
      {"measurement": "molecular weight peak of hyaluronic acid produced", "setting": "[1]; Example 5, synovial cells from three patients with rheumatism, 0.01% (w/v), 48 hours, SB-807 HQ column", "result": "~2,400,000"},
      {"measurement": "peak of the high molecular weight radioactive substance after hyaluronidase treatment", "setting": "[2]; hyaluronidase (+)", "result": "disappearance of the peak"},
      {"measurement": "production and molecular weight of high molecular weight radioactive substance", "setting": "[2]; hyaluronidase (−)", "result": "higher molecular weight than the radioactive substance in the 0.01% HA (hyaluronidase (−)) group"},
      {"measurement": "molecular weight peak of hyaluronic acid produced", "setting": "[3]; Example 5, 0.01% (w/v)", "result": "~2,400,000"},
      {"measurement": "molecular weight of hyaluronic acid produced", "setting": "[3]; Example 5, 0.1% (w/v)", "result": "more than 2,400,000"},
      {"measurement": "expression of HAS2 mRNA (relative mRNA level)", "setting": "HAS2 mRNA", "result": "significantly promotes"},
      {"measurement": "expression of HYAL2 mRNA (relative mRNA level)", "setting": "HYAL2 mRNA", "result": "significantly suppresses"},
      {"measurement": "molecular weight peak of hyaluronic acid synthesized in the knee joint", "setting": "[4]; 0.5% (w/v) solution, 0.5 mL/joint into the knee joint cavity, joint fluid at 48 hours, normal rabbit peak higher than 2,300,000", "result": "~2,300,000"},
      {"measurement": "amount of high molecular weight hyaluronic acid produced in the knee joint", "setting": "[4]; [6]", "result": "prominent as compared with the sodium hyaluronate administration group"},
      {"measurement": "production amount of hyaluronic acid in the knee joint", "setting": "[4]; [6]", "result": "more prominent in the compound 1 administration group even as compared with the normal group"},
      {"measurement": "cell count after cell culture", "setting": "[5]", "result": "no significant increase or decrease"}
    ]}
  ]
}
